Reference: patent US5639887A, “MDR reversal agents” (priority 1995, dated 1997)
Counter-ions that a name gives are not always drawn.

Columns and labels:
[1] = tested on: vincristine resistant murine leukemia P388/VCR; test: In vivo evaluation of MDR-1 reversal agents against vincristine resistant murine leukemia P388/VCR implanted IP in CDF1 mice; settings: days 1-7, IP; for % ILS: vs vincristine alone
Procedure: Tumor cell ascites are harvested 5-7 days later. For drug testing, groups of 10-15 CDF1 mice (DBA/2×Balb/cF1 hybrids; Charles River Laboratories, Inc) are injected IP with 0.5 ml of diluted ascitic fluid containing 1×10^6 viable P388/VCR tumor cells. […] Drugs are administered once daily, by the IP, intravenous (IV) or oral route, starting one day after tumor implantation and using a variety of treatment schedules. Mice are weighed periodically, survival is recorded for 30 days post tumor implantation, and Mean survival times are calculated for all groups of mice. Statistical analysis of Mean survival times is carried out using the Student t-test.

[2] = tested on: human epidermoid carcinoma KB/8.5; test: In vivo evaluation of MDR-1 reversal agents against human epidermoid carcinoma KB/8.5 implanted SC in athymic nude mice; parameters: species or system human (tumor in athymic nude mice)
Procedure: The multiple drug resistant human epidermoid carcinoma KB/8.5 is propagated in medium containing colchicine (10 nanograms/ml) to maintain drug resistance. Colchicine is removed from the medium, for two cell passages, prior to subcutaneous (SC) implant of 8×10^6 KB/8.5 tumor cells into athymic "nude" mice (Harlan Sprague Dawley). […] Individual mouse tumor mass and mean tumor mass for each treatment group is determined on Day +14 and Day +21 of the test period. For each treatment group, the Relative Tumor Growth, RTG, is calculated as follows: [formula]
Statistical analysis of Log Relative Tumor Growth is carried out using the Student t-test. Transformation of the data from absolute mean tumor mass (mgs tumor mass) to Log Relative Tumor Growth prior to statistical analysis has two beneficial effects:
1) it corrects the data for differences in mean tumor mass of the different treatment groups at the start of the test period (Day 0); and
2) the Log transformation of the data more adequately reflects the exponential growth pattern of the SC tumors and makes the use of the Student t-test more appropriate.

[3] = vincristine 0.2 + compound 6.3 mg/kg
[4] = vincristine 0.2 + compound 25 mg/kg
[5] = vincristine 0.2 + compound 50 mg/kg
[6] = doxorubicin 8 mg/kg IV + compound 25 mg/kg/dose SC at -2 h and +2 h
[7] = doxorubicin 8 mg/kg IV + compound 50 mg/kg/dose SC at -2 h and +2 h
[8] = doxorubicin 8 mg/kg IV + compound 100 mg/kg/dose SC at -2 h and +2 h
[9] = doxorubicin 8 mg/kg IV + compound 150 mg/kg/dose SC at -2 h and +2 h
[10] = doxorubicin 8 mg/kg IV + compound […] SC at -2 h and +2 h
[11] = doxorubicin 8 mg/kg IV + compound 200 mg/kg/dose SC at -2 h and +2 h
[12] = doxorubicin 8 mg/kg IV + compound 200 mg/kg/dose SC x2

| Structure (SMILES) | Relative Tumor Growth Day 21 [2, 6] | Relative Tumor Growth Day 21 [2, 7] | Relative Tumor Growth Day 21 [2, 8] | Relative Tumor Growth Day 21 [2, 10] | Relative Tumor Growth Day 21 [2, 11] | also measured |
| --- | --- | --- | --- | --- | --- | --- |
| COc1ccc(C(C#N)(CCN2CCc3cc(OC)c(OC)cc3C2)Sc2ccc(C)cc2)cc1OC (stereo not drawn) [Example 9, α-(3,4-Dimethoxyphenyl)-3,4-dihydro-6,7-dimethoxy-α-[(4-methylphenyl)thio]-2(1H]-isoquinolinebutanenitrile] | – | – | – | – | – | MST [1, 3]: 16.4 days; % ILS [1, 3]: +10% |
| COC(=O)C(CCCN1CCc2cc(OC)c(OC)cc2C1)(Sc1ccc(C)cc1)c1ccc(OC)c(OC)c1 (stereo not drawn) [Example 12, α-(3,4-Dimethoxyphenyl)-3,4-dihydro-6,7-dimethoxy-α-[(4-methylphenyl)thio]-2(1H)-isoquinolinepentanoic acid methyl ester] | – | – | – | – | – | MST [1, 4]: 16.5 days; MST [1, 5]: 16.7 days; % ILS [1, 4]: +9%; % ILS [1, 5]: +11% |
| COc1ccc(C(C#N)(CCCCCN2CCc3ccccc3C2)Sc2ccc(C)cc2)cc1OC (stereo not drawn) [Example 16, α-(3,4-Dimethoxyphenyl)-3,4-dihydro-α-[(4-methylphenyl)thio]-2(1H)-isoquinoline-2-heptanenitrile] | – | – | – | – | – | MST [1, 4]: 16.8 days; % ILS [1, 4]: +11% |
| COc1ccc(C(C#N)(CCCCCCCCN2CCc3cc(OC)c(OC)cc3C2)Sc2ccc(C)cc2)cc1OC (stereo not drawn) [Example 20, α-(3,4-Dimethoxyphenyl]-3,4-dihydro-6,7-dimethoxy-α-[(4-methylphenyl)thio]-2(1H)-isoquinolinedecanenitrile] | – | – | – | – | – | MST [1, 3]: 13.5 days; % ILS [1, 3]: +8% |
| COc1ccc(C(C#N)(CCCCCN2Cc3cc(OC)c(OC)cc3C2)Sc2ccc(C)cc2)cc1OC.Cl (stereo not drawn) [Example 27, α-(3,4-Dimethoxyphenyl)-1,3-dihydro-5,6-dimethoxy-α-[(4-methylphenyl)thio]-2H-isoindole-2-heptanenitrile hydrochloride] | 10.30 | 9.55 | 6.39 | 9.66 | – | Relative Tumor Growth Day 14 [2, 9]: Toxic; Relative Tumor Growth Day 21 [2, 9]: Toxic |
| COc1ccc(C(C#N)(CCCCCN2CCc3cc(OC)c(OCCCl)cc3C2)Sc2ccc(C)cc2)cc1OC (stereo not drawn) [Example 32, 7-(2-Chloroethoxy)-α-(3,4-dimethoxyphenyl)-3,4-dihydro 6-methoxy-α-[(4-methylphenyl)thio]-2(1H)-isoquinoline heptanenitrile] | 11.30 | – | – | 19.93 | – | – |
| COc1ccc(C(CCCCCN2CCc3cc4c(cc3C2)OCO4)Sc2ccc(C)cc2)cc1OC (stereo not drawn) [Example 47] | 9.73 | 16.54 | 10.09 | 17.53 | 11.04 | – |
| COc1ccc(C(CCCCCCN2Cc3cc(OC)c(OC)cc3C2)Sc2ccc(C)cc2)cc1OC (stereo not drawn) [Example 49, 2-[7-(3,4-Dimethoxyphenyl]-7-[(4-methylphenyl]thio]-beptyl]-2,3-dihydro-5,6-dimethoxy-1H-isotndole] | 5.04 | – | – | 6.41 | – | – |
| COc1ccc(C(CCCCCCN2CCc3cc(OC)c(OC)cc3C2)Sc2ccc(C)cc2)cc1OC (stereo not drawn) [Example 50, 2-[7-(3,4-Dimethoxyphenyl)-7-[(4-methylphenyl)thio]-heptyl]-1,2,3,4-tetrahydro-6,7-dimethoxyisoquinoline] | 7.86 | 8.76 | 7.08 | 10.30 | 6.87 | – |
| COc1ccc(CC2c3cc(OC)c(OC)cc3CCN2CCCCCC(C#N)(Sc2ccc(C)cc2)c2ccc(OC)c(OC)c2)cc1OC (stereo not drawn) [Example 55, α-(3,4-Dimethoxyphenyl)-1-[(3,4-dimethoxyphenyl)-methyl]-3,4-dihydro-6,7-dimethoxy-α-[(4-methylphenyl)-thio]-2(1H)-isoquinolineheptanenitrile] | – | 12.20 | 12.37 | – | 7.15 | – |
| COc1ccc(C(CCCCCN2CCc3cc(OC)c(OC)cc3C2)SC2CCCCC2)cc1OC (stereo not drawn) [Example 61, 2-[6-(Cyclohexylthio)-6-(3,4-dimethoxyphenyl)hexyl]-1,2,3,4-tetrahydro-6,7-dimethoxyisoquinoline] | – | 8.66 | 6.86 | 8.88 | – | – |
| COc1ccc(C(C#N)(CCCCCN2CCc3cc(OC)c(OC)cc3C2)SC2CCCCC2)cc1OC (stereo not drawn) [Example 62, α-(Cyclohexylthio)-α-(3,4-dimethoxyphenyl)-3,4-dihydro6,7-dimethoxy-2(1H)-isoquinolineheptane nitrile] | – | 9.47 | 6.08 | 10.17 | – | toxicity remark (tox), Day 14 [2, 12]: tox; toxicity remark (tox), Day 21 [2, 12]: tox |
| COc1ccc(C(CCCCCN2CCc3cc(OC)c(OC)cc3C2)SC(C)(C)C)cc1OC (stereo not drawn) [Example 66, 2-[6-(3,4-Dimethoxyphenyl)-6[(1,1-dimethylethyl)thio]hexyl]-1,2,3,4-tetrahydro-6,7-dimethoxyisoquinoline] | – | – | 8.17 | – | 7.07 | – |
| COc1ccc(C(CCCCCCN2CCc3cc(OC)c(OC)c(OC)c3C2)Sc2ccc(C)cc2)cc1OC (stereo not drawn) [Example 67, 2-[7-(3,4-Dimethoxyphenyl)-7-[(4-methylphenyl)thio]-heptyl]-1,2,3,4-tetrahydro-6,7,8-trimethoxyisoquinoline] | – | 11.52 | 7.76 | 9.81 | 8.55 | – |
| COc1ccc(C(CCCCCCN2CCc3cc(OC)c(OC)cc3C2)Sc2ccc(C)cc2)cc1O (stereo not drawn) [Example 72, 5-[7-(3,4-Dihydro-6,7-dimethoxy-2(1H)-isoquinolinyl)-1[(4-methylphenyl)thio]heptyl]-2-methoxyphenol] | – | – | – | 9.58 | – | – |
| COc1cc2c(cc1OC)CN(CCCCCCC(Sc1ccc(C)cc1)c1ccc(OC)c(OCCn3ccnc3)c1)CC2 (stereo not drawn) [Example 74] | – | – | – | – | – | Relative Tumor Growth Day 21 ([2]; doxorubicin 8 mg/kg IV + compound 25 mg/kg/dose SC at -2 h and +2 h, listed as Ex-74): 9.11; Relative Tumor Growth Day 21 ([2]; doxorubicin 8 mg/kg IV + compound 50 mg/kg/dose SC at -2 h and +2 h, listed as Ex-74): 9.18; Relative Tumor Growth Day 21 ([2]; doxorubicin 8 mg/kg IV + compound […] SC at -2 h and +2 h, listed as Ex-74): 9.00 |
| COc1cc2c(cc1OC)CN(CCCCCCC(Sc1ccc(C)cc1)c1ccc(OC)c(OCCn3ccnc3)c1)CC2 (stereo not drawn) [Example 75, 1,2,3,4-Tetrahydro-2-[7-[3-[2-(1H-imidazol-1-yl)-ethoxy]-4-methoxyphenyl]-7-[(4-methylphenvl]thio]-heptyl-6,7-dimethoxyisoquinolinedihydrochloride] | – | – | – | – | – | Relative Tumor Growth Day 21 ([2]; doxorubicin 8 mg/kg IV + compound 25 mg/kg/dose SC at -2 h and +2 h, listed as Ex-75, dihydrochloride): 11.05; Relative Tumor Growth Day 21 ([2]; doxorubicin 8 mg/kg IV + compound 50 mg/kg/dose SC at -2 h and +2 h, listed as Ex-75, dihydrochloride): 9.12; Relative Tumor Growth Day 21 ([2]; doxorubicin 8 mg/kg IV + compound 100 mg/kg/dose SC at -2 h and +2 h, listed as Ex-75, dihydrochloride): 6.74; Relative Tumor Growth Day 21 ([2]; doxorubicin 8 mg/kg IV + compound 200 mg/kg/dose SC at -2 h and +2 h, listed as Ex-75, dihydrochloride): 7.70; Relative Tumor Growth Day 21 ([2]; doxorubicin 8 mg/kg IV + compound […] SC at -2 h and +2 h, listed as Ex-75, dihydrochloride): 14.21 |
| CCC(CCCCCN1CCc2cc(OC)c(OC)cc2C1)(Sc1ccc(C)cc1)c1ccc(OC)c(OC)c1 (stereo not drawn) [Example 78, 2-[6-(3,4-Dimethoxyphenyl)-6-[(4-methylphenyl)thio]-octyl]-1,2,3,4-tetrahydro-6,7-dimethoxyisoquinoline] | 10.14 | – | – | 10.27 | – | – |
| COc1ccc(C(C#N)(CCCCCN2Cc3cc(Cl)c(Cl)cc3C2)Sc2ccc(C)cc2)cc1OC (stereo not drawn) [Example 81] | – | – | – | 9.52 | – | – |
| COc1cc2c(cc1OC)CN(CCCCCC(Sc1ccc(C)cc1)c1ccc3c(c1)OCO3)CC2 (stereo not drawn) [Example 89] | 8.02 | 9.40 | 11.04 | 10.70 | 6.04 | – |
| COc1cc2c(cc1OC)CN(CCCCCC(Sc1ccc(C)cc1)c1ccc(OC(F)(F)F)cc1)CC2 (stereo not drawn) [Example 92, 1,2,3,4-Tetrahydro-6,7-dimethoxy-2-[6-[(4-methyl-phenyl]thio]-6-[trifluoromethoxy)phenyl]hexylisoquinoline] | 12.05 | 11.75 | 10.48 | 12.75 | 8.71 | – |
